Results taken from patent US10858344B2, “Hydantoin containing deoxyuridine triphosphatase inhibitors” (CV6 Therapeutics (NI) Limited, priority 2016, dated 2020).

Legend:
[1] = test system: colorectal (HCT116 and SW620) cell line models; assay: MTS growth inhibition assay; type: cell-based; details: 5-FU between 0 and 100 μmol/L; both colorectal cancer cell lines
Method: The Cell Titer AQueous MTS assay (Promega) is carried out according to the manufacturers guidelines. […] The combination effect is determined by the combination index (CI) method utilizing Calcusyn software (Biosoft, Ferguson, Mo.). Fraction affected (FA) is calculated from the percent growth inhibition: FA=[…]. CI values <1, synergism; 1-1.2, additive and >1.2, antagonism.
MTS growth inhibition assays are performed to evaluate the effectiveness of the test compounds alone and in combination with the fluoropyrimidine thymidylate synthase (TS) inhibitor 5-fluorouracil (5-FU) at inhibiting the growth of colorectal (HCT116 and SW620) cell line models. […] Simultaneous treatment with increasing concentrations of 5-FU and a test compound at fixed concentrations of 25 μmol/L is determined.

[2] = test system: colorectal (HCT116), breast (MCF-7) and non-small cell lung (H1299, A549, H358 and H460) cell line models; assay: Colony forming assay; type: cell-based; details: FUdR between 0.5 and 2.5 μmol/L; all cell lines evaluated
Method: Colony forming assay showing the ability of colon (SW620, HCT116), non-small cell lung (A549, H460, H1299 and H358) and breast (MCF7) cancer cells to survive and proliferate following transient 24 hour exposure to test compounds, FUdR and combinations are determined. Specifically, cells are seeded at densities between 50 and 100 cells/well in 24-well plates. Twenty-four hours later, cells are treated with increasing concentrations of a rtest compound, a fixed dose of FUdR and combinations of these. After 24 hours, drug is removed, cells are rinsed and allowed to outgrow for 10-14 days. At the conclusion of the outgrowth, cells are fixed in 60% ice cold methanol and stained with 0.1% crystal violet, scanned and counted. Data is presented as percentage of untreated controls (mean±SD). Fraction affected and combination indexes are calculated according to the method of Chou and Talalay where <1 is indicative of a synergistic drug interaction.
Colony forming assays are performed to evaluate the effectiveness of test compounds alone and in combination with the fluoropyrimidine thymidylate synthase (TS) inhibitor fluorodeoxyuridine (FUdR) at reducing cancer cell viability in colorectal (HCT116), breast (MCF-7) and non-small cell lung (H1299, A549, H358 and H460) cell line models. […]

[3] = biological target: recombinant human deoxyuridine nucleotidohydrolase (dUTPase) (Homo sapiens (Human), UniProt P33316); assay: fluorescence-based dUTPase inhibition assay; type: biochemical; details: for % relative inhibition vs. positive control: mean over three concentrations, typically 100, 50 and 25 μmol/L, compared to in-run positive control
Source text: Recombinant human deoxyuridine nucleotidohydrolase (dUTPase) is expressed and purified as described in Ladner R D, Carr S A, Huddleston M J, McNulty D E, Caradonna S J. J Biol Chem. 1996 Mar. 29; 271(13):7752-7. All drugs stocks are aliquoted and diluted as appropriate prior to use. The oligonucelotide primer, templates and fluorophore- and quencher-labeled detection probes are synthesized by Integrated DNA Technologies (Coralville, Iowa), subjected to polyacrylamide gel electrophoresis purification and reconstituted in Omnipur sterile nuclease-free water (EMD Chemicals USA, Gibbstown N.J.) at a stock concentration of 100 μmol/L. The two non-emissive (dark) quenching molecules incorporated into the detection probes include the Iowa black fluorescein quencher (IBFQ; absorption max 531 nm) and ZEN (non-abbreviation; absorption max 532 nm). The fluorescent label utilized is 6-FAM (5′-carboxyfluorescein; excitation max.=494 nm, emission max.=520 nm). Probes are further diluted to a working stock of 10 μmol/L and aliquoted to avoid repeated freeze/thaw cycles. AmpliTaq Gold DNA Polymerase, GeneAmp 10×PCR Buffer 2, MgCl2 and MicroAmp Optical 96-well Reaction Plates are purchased from Applied Biosystems (Carlsbad, Calif.). dNTPs are purchased individually at stock concentrations of 100 mmol/L from New England Biolabs at HPLC-certified >99% purity (Ipswich, Mass.).
Reaction mixtures contained primer, probe and template at an equimolar final concentration of 0.4 μmol/L. Magnesium chloride (MgCl2) is included at a final concentration of 2 mmol/L. Non-limiting dNTPs are included in the reaction mix in excess at a final concentration of 100 μmol/L (dUTP/dTTP is excluded). AmpliTaq Gold DNA polymerase is added at 0.875 U/reaction, 2.5 μl of 10×PCR buffer 2 added and nuclease-free ddH2O added to a final reaction volume of 25 μl. For dUTP inhibition analysis, the volume of ddH2O is further modified to accommodate an additional 1 μl of dUTPase (10 ng/μl) and 1 μl of inhibitor or DMSO control. Thermal profiling and fluorescence detection is performed using a customized thermal program on board a Roche Lightcycler LC480 Instrument II. For analysis of dNTPs, the thermal profile consisted of an 8 min 37° C. step followed by a 10 min 95° C. step to ‘hot-start’ the Taq polymerase and a primer extension time of up to 30 min at 60° C. Raw fluorescence spectra for 6-FAM is measured at specified time intervals to follow assay progression on board a Roche LightCycler 480 Software Version 1.5 and exported and analyzed in Microsoft Excel (Microsoft, Redmond Wash.) and Prism (GraphPad Software, La Jolla Calif.). Fluorescence values for blank reactions (limiting dNTP omitted) are subtracted to give normalized fluorescence units (NFU) to account for background fluorescence.
Test compounds are screened in a fluorescence-based assay. The assay employs a DNA polymerase-based approach utilizing an oligonucleotide template with 3 distinct regions: a 3′ primer binding region, a mid-template dUTP/thymidine triphosphate (TTP) detection region and a 5′ 6-[…] (FAM)-labeled probe binding region that incorporates a black hole quenching moiety. During the reaction, the probe and primer hybridize to the oligonucleotide template to form the template:primer:probe complex. When Taq polymerase binds to the primer in the TPP complex and dUTP is present, successful extension of the nascent strand occurs and the inherent 5′ to 3′ exonuclease activity of Taq polymerase cleaves and displaces the 6-FAM-labeled probe in a 5′ to 3′ direction, releasing the 6-FAM fluorophore from its proximity to the three quenchers. This displacement effectively disrupts the Förster resonance energy transfer (FRET) and the resulting fluorescence detected upon excitation is directly proportional to the amount of the dUTP available in the assay for incorporation. […]

recombinant human deoxyuridine nucleotidohydrolase (dUTPase), sequence (P33316 other isoform, or with tags, fused parts or gaps): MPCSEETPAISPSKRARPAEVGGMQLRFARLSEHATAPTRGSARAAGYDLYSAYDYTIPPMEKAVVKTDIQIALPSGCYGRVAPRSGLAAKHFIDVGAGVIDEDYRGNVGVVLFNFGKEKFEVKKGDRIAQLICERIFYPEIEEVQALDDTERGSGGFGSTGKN

| Structure (SMILES) | % relative inhibition vs. positive control [3] | IC50 [3] | further results |
| --- | --- | --- | --- |
| O=c1[nH]cc(F)c(=O)[nH]1 [5-FU, 5-fluorouracil] | – | – | growth inhibition [1]: dose-dependent increases in growth inhibition |
| O=c1[nH]c(=O)n([C@H]2C[C@H](O)[C@@H](CO)O2)cc1F [FUdR, fluorodeoxyuridine] | – | – | colonies formed [2]: dose-dependent decreases in colonies formed |
| CC1(C)C(=O)NC(=O)N1C/C=C/CCS(=O)(=O)NC1(c2ccc(F)c(OCC3CC3)c2)CC1 [119a, (E)-N-(1-(3-(cyclopropylmethoxy)-4-fluorophenyl)cyclopropyl)-5-(5,5-dimethyl-2,4-dioxoimidazolidin-1-yl)pent-3-ene-1-sulfonamide] | 10% | – | – |
| O=C1CN(CCCCCS(=O)(=O)NC(c2ccc(F)c(OCC3CC3)c2)C2CC2)C(=O)N1 (centres unmarked) [Example 104, N-(cyclopropyl (3-(cyclopropylmethoxy)-4-fluorophenyl)methyl)-5-(2,4-dioxoimidazolidin-1-yl) pentane-1-sulfonamide] | 57% | – | – |

Now from value to compound, other results behind:

| % relative inhibition vs. positive control [3] | IC50 [3] | Structure (SMILES) | further results |
| --- | --- | --- | --- |
| 152% | – | C[C@@H](NS(=O)(=O)CCCCCC1CC(=O)NC1=O)c1ccc(F)c(OCC2CC2)c1 (stereo partly drawn) [compound 126, N—((R)-1-(3-(cyclopropylmethoxy)-4-fluorophenyl)ethyl)-5-(2,5-dioxopyrrolidin-3-yl)pentane-1-sulfonamide] | – |
| 93% | 800 nM | C[C@@H](NS(=O)(=O)CCCCCN1CC(=O)NC1=O)c1cccc(OC2CCCC2)c1 [Example 89, (R)—N-(1-(3-(cyclopentyloxy)phenyl)ethyl)-5-(2,4-dioxoimidazolidin-1-yl)pentane-1-sulfonamide] | – |
| 30% | 2500 nM | C[C@@H](NS(=O)(=O)CCCOCN1CC(=O)NC1=O)c1cccc(OC2CCCC2)c1 [Example 84, (R)—N-(1-(3-(cyclopentyloxy)phenyl)ethyl)-3-((2,4-dioxoimidazolidin-1-yl)methoxy)propane-1-sulfonamide] | – |
| 25% | 3000 nM | CCOc1cc([C@@H](C)NS(=O)(=O)CCCCCN2CC(=O)NC2=O)ccc1F [Example 82, (R)-5-(2,4-dioxoimidazolidin-1-yl)-N-(1-(3-ethoxy-4-fluorophenyl)ethyl)pentane-1-sulfonamide] | – |
